According to ChEMBL document CHEMBL5120882, “Medicinal Chemistry Perspective on Targeting Mono-ADP-Ribosylating PARPs with Small Molecules” (J Med Chem, 2022):
pIC50: −log10 of the molar value.

Legend:
[1] = target: T1, Protein mono-ADP-ribosyltransferase PARP10 (Homo sapiens, UniProt Q53GL7); experiment: Inhibition of C-terminal his-tagged human PARP10 expressed in Escherichia coli Rosette2 (DE3)
T1 sequence (Q53GL7 whole entry): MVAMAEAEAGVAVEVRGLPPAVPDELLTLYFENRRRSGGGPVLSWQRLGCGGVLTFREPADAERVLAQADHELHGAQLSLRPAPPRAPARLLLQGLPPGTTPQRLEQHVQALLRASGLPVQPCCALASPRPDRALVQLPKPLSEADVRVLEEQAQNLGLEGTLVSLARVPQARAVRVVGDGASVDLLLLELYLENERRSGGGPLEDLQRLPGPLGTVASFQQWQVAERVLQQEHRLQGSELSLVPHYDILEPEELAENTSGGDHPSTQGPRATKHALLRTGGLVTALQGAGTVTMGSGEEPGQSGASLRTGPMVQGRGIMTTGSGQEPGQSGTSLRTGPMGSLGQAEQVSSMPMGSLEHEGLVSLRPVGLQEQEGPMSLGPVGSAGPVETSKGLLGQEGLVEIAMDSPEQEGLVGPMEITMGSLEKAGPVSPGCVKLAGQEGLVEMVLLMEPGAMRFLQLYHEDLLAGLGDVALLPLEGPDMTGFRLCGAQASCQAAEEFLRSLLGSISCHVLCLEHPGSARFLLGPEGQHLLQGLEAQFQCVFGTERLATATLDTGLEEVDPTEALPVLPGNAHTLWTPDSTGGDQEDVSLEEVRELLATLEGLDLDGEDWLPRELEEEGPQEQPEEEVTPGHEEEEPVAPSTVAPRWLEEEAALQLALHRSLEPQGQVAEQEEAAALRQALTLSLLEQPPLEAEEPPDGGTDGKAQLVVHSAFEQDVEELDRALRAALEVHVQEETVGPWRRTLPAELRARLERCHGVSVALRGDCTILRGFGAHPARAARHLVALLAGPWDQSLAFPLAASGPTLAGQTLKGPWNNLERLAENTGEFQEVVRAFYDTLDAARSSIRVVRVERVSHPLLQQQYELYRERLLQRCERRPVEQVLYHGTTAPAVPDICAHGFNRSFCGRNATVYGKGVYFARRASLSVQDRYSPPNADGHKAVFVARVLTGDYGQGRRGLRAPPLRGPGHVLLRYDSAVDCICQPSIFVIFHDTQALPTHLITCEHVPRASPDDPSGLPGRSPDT

[2] = target: T2, Poly [ADP-ribose] polymerase tankyrase-1 (Homo sapiens, UniProt O95271); experiment: Inhibition of N-terminal his-tagged human TNKS1 expressed in Escherichia coli Rosette2 (DE3)
T2 sequence (O95271 whole entry): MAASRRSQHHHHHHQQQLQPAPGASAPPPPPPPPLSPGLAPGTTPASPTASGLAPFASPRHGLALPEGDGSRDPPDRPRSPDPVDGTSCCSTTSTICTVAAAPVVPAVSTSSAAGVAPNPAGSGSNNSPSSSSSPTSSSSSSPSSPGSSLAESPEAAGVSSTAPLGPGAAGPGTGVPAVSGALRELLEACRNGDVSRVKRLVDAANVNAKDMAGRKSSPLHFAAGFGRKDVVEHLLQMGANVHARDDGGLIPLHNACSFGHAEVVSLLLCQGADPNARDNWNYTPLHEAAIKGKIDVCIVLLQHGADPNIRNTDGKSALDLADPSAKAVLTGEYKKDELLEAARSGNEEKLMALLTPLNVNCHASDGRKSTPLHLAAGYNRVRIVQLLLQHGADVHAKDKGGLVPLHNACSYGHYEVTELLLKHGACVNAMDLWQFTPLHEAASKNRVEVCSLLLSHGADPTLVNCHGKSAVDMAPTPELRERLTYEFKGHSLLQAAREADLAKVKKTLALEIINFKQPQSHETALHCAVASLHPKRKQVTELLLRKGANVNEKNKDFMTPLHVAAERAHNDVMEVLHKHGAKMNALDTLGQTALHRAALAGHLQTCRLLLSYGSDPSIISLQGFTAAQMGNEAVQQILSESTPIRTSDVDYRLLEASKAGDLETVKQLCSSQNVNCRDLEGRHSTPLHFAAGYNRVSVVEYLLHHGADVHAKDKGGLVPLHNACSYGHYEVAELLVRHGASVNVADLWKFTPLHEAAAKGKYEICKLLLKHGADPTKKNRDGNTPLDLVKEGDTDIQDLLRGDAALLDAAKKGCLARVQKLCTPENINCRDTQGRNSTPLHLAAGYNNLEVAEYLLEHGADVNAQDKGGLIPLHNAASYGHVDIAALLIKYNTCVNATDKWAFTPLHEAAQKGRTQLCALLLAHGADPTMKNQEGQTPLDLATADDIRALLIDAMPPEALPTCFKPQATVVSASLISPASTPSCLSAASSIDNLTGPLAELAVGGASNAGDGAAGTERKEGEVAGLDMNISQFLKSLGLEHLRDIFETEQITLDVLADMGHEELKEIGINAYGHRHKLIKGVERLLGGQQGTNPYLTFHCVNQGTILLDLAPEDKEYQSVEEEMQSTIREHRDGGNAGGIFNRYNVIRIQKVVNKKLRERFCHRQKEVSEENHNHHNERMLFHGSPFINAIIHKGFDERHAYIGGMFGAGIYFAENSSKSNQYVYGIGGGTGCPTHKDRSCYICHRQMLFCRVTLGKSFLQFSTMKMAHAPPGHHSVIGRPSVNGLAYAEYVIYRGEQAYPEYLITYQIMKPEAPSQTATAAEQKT

[3] = target: Poly [ADP-ribose] polymerase 1 (Homo sapiens, UniProt P09874); experiment: Inhibition of N-terminal his-tagged human PARP1 expressed in Escherichia coli Rosette2 (DE3)
Chain of Poly [ADP-ribose] polymerase 1 (P09874 whole entry): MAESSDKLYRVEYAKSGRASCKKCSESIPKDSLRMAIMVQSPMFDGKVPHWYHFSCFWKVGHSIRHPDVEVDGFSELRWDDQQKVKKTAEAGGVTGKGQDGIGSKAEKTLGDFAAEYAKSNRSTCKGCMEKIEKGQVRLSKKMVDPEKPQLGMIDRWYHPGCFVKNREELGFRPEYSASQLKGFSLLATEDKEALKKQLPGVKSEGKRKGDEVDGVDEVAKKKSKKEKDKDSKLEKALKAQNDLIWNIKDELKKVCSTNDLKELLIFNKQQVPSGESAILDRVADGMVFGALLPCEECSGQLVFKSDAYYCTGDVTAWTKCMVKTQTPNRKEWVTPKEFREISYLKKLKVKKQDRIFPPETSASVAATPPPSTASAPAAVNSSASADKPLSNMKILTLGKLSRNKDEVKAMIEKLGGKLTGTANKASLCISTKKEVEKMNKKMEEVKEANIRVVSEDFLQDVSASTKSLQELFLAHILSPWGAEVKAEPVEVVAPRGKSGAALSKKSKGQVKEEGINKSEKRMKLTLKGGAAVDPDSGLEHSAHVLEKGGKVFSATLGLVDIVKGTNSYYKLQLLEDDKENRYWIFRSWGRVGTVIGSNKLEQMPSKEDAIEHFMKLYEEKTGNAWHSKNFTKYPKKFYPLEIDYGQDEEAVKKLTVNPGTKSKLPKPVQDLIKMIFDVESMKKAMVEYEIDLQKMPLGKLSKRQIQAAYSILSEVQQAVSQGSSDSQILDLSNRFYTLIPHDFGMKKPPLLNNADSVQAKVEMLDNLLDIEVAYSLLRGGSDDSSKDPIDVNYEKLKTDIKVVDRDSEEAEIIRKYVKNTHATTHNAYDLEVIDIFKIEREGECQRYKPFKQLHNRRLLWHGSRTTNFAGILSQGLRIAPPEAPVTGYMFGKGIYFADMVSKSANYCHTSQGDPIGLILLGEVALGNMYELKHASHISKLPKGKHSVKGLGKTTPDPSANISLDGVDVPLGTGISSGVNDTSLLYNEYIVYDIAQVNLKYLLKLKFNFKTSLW

| Structure (SMILES) | pIC50 [1] | pIC50 [2] | pIC50 [3] |
| --- | --- | --- | --- |
| NC(=O)c1ccc(Oc2cccc(C(N)=O)c2)cc1 | 6.32 | 4.68 | < 4.00 |
| N#Cc1ccc(Oc2ccc(C(N)=O)cc2)cc1 | 5.44 | < 4.00 | < 4.00 |
